This experiment concerns Endogenous Huntingtin Protein. Description: Endogenous Huntingtin Protein Assay (ELISA-based MSD electrochemiluminescence). Conditions: Table 1. Type of experiment: cell-based. Here is the method:
Compounds of Formula (I) or Formula (II) were tested using the Meso Scale Discovery (MSD) Assay provided in International Application No. PCT/US2016/066042, filed on Dec. 11, 2016 and claiming priority to U.S. Provisional Application 62/265,652 filed on Dec. 10, 2015, the entire contents of which are incorporated herein by reference.
The Endogenous Huntingtin Protein assay used in Example 1 was developed using the ELISA-based MSD electrochemiluminescence assay platform.
Endogenous Huntingtin Protein Assay
Meso Scale Discovery (MSD) 96-well or 384-well plates were coated overnight at 4° C. with MW1 (expanded polyglutamine) or MAB2166 monoclonal antibody (for capture) at a concentration of 1 μg/mL in PBS (30 μL per well). Plates were then washed three times with 300 μL wash buffer (0.05% Tween-20 in PBS) and blocked (100 μL blocking buffer; 5% BSA in PBS) for 4-5 hours at room temperature with rotational shaking and then washed three times with wash buffer.
Samples (25 μL) were transferred to the antibody-coated MSD plate and incubated overnight at 4° C. After removal of the lysates, the plate was washed three times with wash buffer, and 25 μL of #5656S (Cell signaling; rabbit monoclonal) secondary antibody (diluted to 0.25 μg/mL in 0.05% Tween-20 in blocking buffer) was added to each well and incubated with shaking for 1 Hour at room temperature. Following incubation with the secondary antibody, the wells were rinsed with wash buffer after which 25 μL of goat anti-rabbit SULFO TAG secondary detection antibody (required aspect of the MSD system) (diluted to 0.25 μg/mL in 0.05% Tween-20 in blocking buffer) was added to each well and incubated with shaking for 1 hour at room temperature. After rinsing three times with wash buffer, 150 μL of read buffer T with surfactant (MSD) were added to each empty well, and the plate was imaged on a SI 6000 imager (MSD) according to manufacturers' instructions provided for 96- or 384-well plates.
For orientation: In an ELISA, binding on a coated surface is turned into a signal by an enzyme label.

The values that follow come from US12139499B2, “Heteroaryl compounds for treating Huntington's disease” (PTC THERAPEUTICS, INC., priority 2018, dated 2024).

Molecules are shown by their SMILES.

A word on the IC50: it is the concentration at which inhibition is half-maximal. High values mean weaker potency in that assay, low ones greater potency in that assay. For `CN(C)C1CCN(c2nc3ccc(-c4ccc5nn(C)cc5c4)cc3s2)CC1` [Compound 28, N,N-dimethyl-1-[6-(2-methyl-2H-indazol-5-yl)-1,3-benzothiazol-2-yl]piperidin-4-amine], the IC50 fell in the range of 1000 to 3000 nM.

Compound `Cn1cc2cc(-c3ccc4nc(N5CCC(N)CC5)sc4c3)ccc2n1` [Compound 29, 1-[6-(2-methyl-2H-indazol-5-yl)-1,3-benzothiazol-2-yl]piperidin-4-amine] registered an IC50 of 1000 to 3000 nM.

With `Cc1cc(-c2cc3sc(N(C)C4CCNCC4)nc3cn2)cc2cn(C)nc12` [Compound 30, 6-(2,7-dimethyl-2H-indazol-5-yl)-N-methyl-N-(piperidin-4-yl)[1,3]thiazolo[4,5-c]pyridin-2-amine], the IC50 was in the range of 100 to 500 nM.

In turn, `Cc1cc(-c2cc3sc(N(C)C4CC(C)(C)NC(C)(C)C4)nc3cn2)cc2cn(C)nc12` [Compound 31, 6-(2,7-dimethyl-2H-indazol-5-yl)-N-methyl-N-(2,2,6,6-tetramethylpiperidin-4-yl)[1,3]thiazolo[4,5-c]pyridin-2-amine] gave an IC50 of at most 100 nM.

In turn, `CN(c1nc2cnc(-c3ccc4nn(C)cc4c3)cc2s1)C1CC(C)(C)NC(C)(C)C1` [Compound 32, N-methyl-6-(2-methyl-2H-indazol-5-yl)-N-(2,2,6,6-tetramethylpiperidin-4-yl)[1,3]thiazolo[4,5-c]pyridin-2-amine] yielded an IC50 of at most 100 nM.

In turn, `Cc1cn2cc(-c3ccc4nc(N(C)C5CC(C)(C)NC(C)(C)C5)sc4c3)cc(C)c2n1` [Compound 33, 6-(2,8-dimethylimidazo[1,2-a]pyridin-6-yl)-N-methyl-N-(2,2,6,6-tetramethylpiperidin-4-yl)-1,3-benzothiazol-2-amine] came in with an IC50 of at most 100 nM.

As for `CN(c1nc2ccc(-c3ccc4[nH]ncc4c3)cc2s1)C1CC(C)(C)NC(C)(C)C1` [Compound 34, 6-(1H-indazol-5-yl)-N-methyl-N-(2,2,6,6-tetramethylpiperidin-4-yl)-1,3-benzothiazol-2-amine], the IC50 was in the range of 100 to 500 nM.

Consider `Cn1cc2cc(-c3ccc4nc(NC5CCNCC5)sc4c3)ccc2n1` [Compound 35, 6-(2-methyl-2H-indazol-5-yl)-N-(piperidin-4-yl)-1,3-benzothiazol-2-amine], for which the IC50 was 100 to 500 nM.

Regarding `Cc1cc(-c2ccc3nc(N(C)C4CCNCC4)sc3n2)cc2cn(C)nc12` [Compound 36, 5-(2,7-dimethyl-2H-indazol-5-yl)-N-methyl-N-(piperidin-4-yl)[1,3]thiazolo[5,4-b]pyridin-2-amine], the IC50 is 100 to 500 nM.

For `Cc1cn2nc(-c3cc(F)c4nc(N(C)C5CC(C)(C)NC(C)(C)C5)sc4c3)ccc2n1` [Compound 37, 4-fluoro-N-methyl-6-(2-methylimidazo[1,2-b]pyridazin-6-yl)-N-(2,2,6,6-tetramethylpiperidin-4-yl)-1,3-benzothiazol-2-amine], the IC50 was at most 100 nM.

With `CN(c1nc2ccc(-c3ccc4nn(C)cc4c3)cc2s1)C1CCNC1` (centres unmarked) [Compound 38, N-methyl-6-(2-methyl-2H-indazol-5-yl)-N-(pyrrolidin-3-yl)-1,3-benzothiazol-2-amine], the IC50 was in the range of 1000 to 3000 nM.

Compound `Cc1cn2cc(-c3cc(F)c4nc(N(C)C5CC(C)(C)NC(C)(C)C5)sc4c3)cc(C)c2n1` [Compound 39, 6-(2,8-dimethylimidazo[1,2-a]pyridin-6-yl)-4-fluoro-N-methyl-N-(2,2,6,6-tetramethylpiperidin-4-yl)-1,3-benzothiazol-2-amine] yielded an IC50 of at most 100 nM.

For `Cc1cn2nc(-c3ccc4nc(N(C)C5CC(C)(C)NC(C)(C)C5)sc4c3)ccc2n1` [Compound 40, N-methyl-6-(2-methylimidazo[1,2-b]pyridazin-6-yl)-N-(2,2,6,6-tetramethylpiperidin-4-yl)-1,3-benzothiazol-2-amine], the IC50 is at most 100 nM.

The compound `Cn1cc2cc(-c3ccc4nc(C5(F)CCNCC5)sc4c3)ccc2n1` [Compound 41, 2-(4-fluoropiperidin-4-yl)-6-(2-methyl-2H-indazol-5-yl)-1,3-benzothiazole] had an IC50 of 1000 to 3000 nM.

Consider `Cn1cc2cc(-c3ccc4nc(C5CCCNCC5)sc4c3)ccc2n1` (centres unmarked) [Compound 42, 2-(azepan-4-yl)-6-(2-methyl-2H-indazol-5-yl)-1,3-benzothiazole], for which the IC50 fell in the range of 100 to 500 nM.

Turning to `Cn1cc2cc(-c3nc4ncc(C5CCNCC5)cc4s3)ccc2n1` [Compound 43, 2-(2-methyl-2H-indazol-5-yl)-6-(piperidin-4-yl)[1,3]thiazolo[4,5-b]pyridine], the IC50 was 100 to 500 nM.

`Cc1cn2nc(-c3cc(F)c4nc(C5=CCNCC5)sc4c3)ccc2n1` [Compound 44, 6-[4-fluoro-2-(1,2,3,6-tetrahydropyridin-4-yl)-1,3-benzothiazol-6-yl]-2-methylimidazo[1,2-b]pyridazine] returned an IC50 of at most 100 nM.

`Cc1cn2nc(-c3cc(F)c4nc(C5CCNCC5)sc4c3)ccc2n1` [Compound 45, 6-[4-fluoro-2-(piperidin-4-yl)-1,3-benzothiazol-6-yl]-2-methylimidazo[1,2-b]pyridazine] registered an IC50 of at most 100 nM.

`Cc1cn2nc(-c3cc(F)c4nc(C5=CCNCC5)sc4c3)cc(C)c2n1` [Compound 46, 6-[4-fluoro-2-(1,2,3,6-tetrahydropyridin-4-yl)-1,3-benzothiazol-6-yl]-2,8-dimethylimidazo[1,2-b]pyridazine] registered an IC50 of at most 100 nM.

The compound `Cc1cn2nc(-c3cc(F)c4nc(C5CCNCC5)sc4c3)cc(C)c2n1` [Compound 47, 6-[4-fluoro-2-(piperidin-4-yl)-1,3-benzothiazol-6-yl]-2,8-dimethylimidazo[1,2-b]pyridazine] displayed an IC50 of at most 100 nM.

As to `Cc1nc2ccc(-c3ccc4nc(N(C)C5CC(C)(C)NC(C)(C)C5)sc4c3)nn2n1` [Compound 48, N-methyl-6-(2-methyl[1,2,4]triazolo[1,5-b]pyridazin-6-yl)-N-(2,2,6,6-tetramethylpiperidin-4-yl)-1,3-benzothiazol-2-amine], the IC50 was 100 to 500 nM.

`Cc1cc(-c2nc3ccc(C4=CCNCC4)cc3s2)cc2cn(C)nc12` [Compound 49, 2-(2,7-dimethyl-2H-indazol-5-yl)-6-(1,2,3,6-tetrahydropyridin-4-yl)-1,3-benzothiazole]: the IC50 is 100 to 500 nM.

Take `Cc1cc(-c2nc3ccc(C4CCNCC4)cc3s2)cc2cn(C)nc12` [Compound 50, 2-(2,7-dimethyl-2H-indazol-5-yl)-6-(piperidin-4-yl)-1,3-benzothiazole]: the IC50 lay within 100 to 500 nM.

Compound `CN(c1nc2ccc(-c3cc(C(F)(F)F)c4nn(C)cc4c3)cc2s1)C1CC(C)(C)NC(C)(C)C1` [Compound 51, N-methyl-6-[2-methyl-7-(trifluoromethyl)-2H-indazol-5-yl]-N-(2,2,6,6-tetramethylpiperidin-4-yl)-1,3-benzothiazol-2-amine] yielded an IC50 of 100 to 500 nM.

For `Cn1cc2cc(-c3ccc4nc(C5CC(C)(C)NC(C)(C)C5)sc4c3)ccc2n1` [Compound 52, 6-(2-methyl-2H-indazol-5-yl)-2-(2,2,6,6-tetramethylpiperidin-4-yl)-1,3-benzothiazole], the IC50 is 1000 to 3000 nM.

Compound `Cc1cn2cc(-c3cc(F)c4nc(C5=CCNCC5)sc4c3)nc(C)c2n1` [Compound 53, 6-[4-fluoro-2-(1,2,3,6-tetrahydropyridin-4-yl)-1,3-benzothiazol-6-yl]-2,8-dimethylimidazo[1,2-a]pyrazine] registered an IC50 of 100 to 500 nM.

With `CCc1cc(-c2ccc3nc(N(C)C4CC(C)(C)NC(C)(C)C4)sc3c2)cc2cn(C)nc12` [Compound 54, 6-(7-ethyl-2-methyl-2H-indazol-5-yl)-N-methyl-N-(2,2,6,6-tetramethylpiperidin-4-yl)-1,3-benzothiazol-2-amine], the IC50 was 100 to 500 nM.

For `Cc1cn2cc(-c3ccc4nc(N(C)C5CC(C)(C)NC(C)(C)C5)sc4c3)cc2c(C)n1` [Compound 55, 6-(1,3-dimethylpyrrolo[1,2-a]pyrazin-7-yl)-N-methyl-N-(2,2,6,6-tetramethylpiperidin-4-yl)-1,3-benzothiazol-2-amine], the IC50 was at most 100 nM.

The compound `Cn1cc2cc(-c3ccc4nc(C5=CCCNCC5)sc4c3)ccc2n1` [Compound 56, 6-(2-methyl-2H-indazol-5-yl)-2-(2,3,6,7-tetrahydro-1H-azepin-4-yl)-1,3-benzothiazole] showed an IC50 of 500 to 1000 nM.

`CN(c1nc2ccc(-c3cc(F)c4nn(C)cc4c3)cc2s1)C1CC(C)(C)NC(C)(C)C1` [Compound 57, 6-(7-fluoro-2-methyl-2H-indazol-5-yl)-N-methyl-N-(2,2,6,6-tetramethylpiperidin-4-yl)-1,3-benzothiazol-2-amine] showed an IC50 of at most 100 nM.

`CC1CC(c2nc3ccc(-c4ccc5nn(C)cc5c4)cc3s2)CCN1` (centres unmarked) [Compound 58, 6-(2-methyl-2H-indazol-5-yl)-2-(2-methylpiperidin-4-yl)-1,3-benzothiazole] returned an IC50 of 500 to 1000 nM.

As for `Cc1cc(-c2cc3sc(C4CCNCC4)nc3cn2)cc2cn(C)nc12` [Compound 59, 6-(2,7-dimethyl-2H-indazol-5-yl)-2-(piperidin-4-yl)[1,3]thiazolo[4,5-c]pyridine], the 50% inhibitory concentration (IC50) lay within 100 to 500 nM.
